Like-named read-outs stand apart in the source and are kept apart here.
Experiment: Biodistribution of 99mTc(N)(X)(DTC)+ heterocomplexes in rats
Type: in vivo, male Spraque-Dawley rats (SD rats)
Experimental: The biodistribution of a ^99mTc nitride heterocomplex represented by the general formula ^99mTc(N)(X)(Y) was investigated as follows: ^99mTc nitride heterocomplexes were synthesized using DTC as a bidentate ligand Y and each of the diphosphine compounds X described below, and the biodistribution in rats of each heterocomplex was investigated.
Before being injected into rats, the contents of the vial were diluted with phosphate buffer (0.1 mol/dm^3, pH=7.06) containing 10% Tween 80 ([…]). The complexes were stable in the solutions and in human plasma for at least 6 hours.
The biodistribution was measured using male Spraque-Dawley rats (SD rats) weighing 200 to 250 g. After 24 hours fasting, the rats were put under intraperitoneal anesthesia and given an injection in the jugular vein. Then, the organs were excised from the rats at different intervals of time, washed and then weighed. In addition, blood samples were collected and then weighed. The data on the biodistribution are expressed as the mean±significant difference of the percentage of radioactivity level per gram of the organ weight based on the dose of radioactivity, (% dose/g). The measurement was carried out using groups of 5 rats each.

## CSC1=[S+][99Tc-2]2(#[N])([NH]N1C)[P+](c1ccccc1)(c1ccccc1)CCOCC[P+]2(c1ccccc1)c1ccccc1 [^99mTc(N)(POP)(DTC)^+]
  Bone % dose/g: 0.225 ± 0.01 % dose/g
  Heart % dose/g: 0.923 ± 0.04 % dose/g
  Liver % dose/g: 3.662 ± 0.43 % dose/g
  Spleen % dose/g: 2.202 ± 0.07 % dose/g
0 min after injection
  Blood % dose/g: 2.617 ± 0.04 % dose/g
  Brain % dose/g: 0.142 ± 0.14 % dose/g
  Intestine % dose/g: 0.482 ± 0.02 % dose/g
  Kidney % dose/g: 3.141 ± 0.35 % dose/g
  Lung % dose/g: 2.792 ± 0.18 % dose/g
  Muscle % dose/g: 0.087 ± 0.00 % dose/g
  Stomach % dose/g: 0.522 ± 0.09 % dose/g
2 min after injection
  Blood % dose/g: 1.254 ± 0.19 % dose/g
  Bone % dose/g: 0.214 ± 0.05 % dose/g
  Brain % dose/g: 0.073 ± 0.00 % dose/g
  Heart % dose/g: 0.73 ± 0.07 % dose/g
  Intestine % dose/g: 0.581 ± 0.06 % dose/g
  Kidney % dose/g: 5.952 ± 0.74 % dose/g
  Liver % dose/g: 4.821 ± 0.71 % dose/g
  Lung % dose/g: 2.387 ± 0.08 % dose/g
  Muscle % dose/g: 0.075 ± 0.00 % dose/g
  Spleen % dose/g: 3.587 ± 0.99 % dose/g
  Stomach % dose/g: 0.493 ± 0.02 % dose/g
10 min after injection
  Blood % dose/g: 0.542 ± 0.02 % dose/g
  Bone % dose/g: 0.306 ± 0.07 % dose/g
  Brain % dose/g: 0.029 ± 0.00 % dose/g
  Heart % dose/g: 0.434 ± 0.05 % dose/g
  Intestine % dose/g: 0.934 ± 0.03 % dose/g
  Kidney % dose/g: 4.805 ± 0.51 % dose/g
  Liver % dose/g: 6.161 ± 0.47 % dose/g
  Lung % dose/g: 1.19 ± 0.40 % dose/g
  Muscle % dose/g: 0.069 ± 0.01 % dose/g
  Spleen % dose/g: 3.538 ± 0.70 % dose/g
  Stomach % dose/g: 0.653 ± 0.06 % dose/g
30 min after injection
  Blood % dose/g: 0.547 ± 0.01 % dose/g
  Bone % dose/g: 0.21 ± 0.02 % dose/g
  Brain % dose/g: 0.023 ± 0.00 % dose/g
  Heart % dose/g: 0.428 ± 0.05 % dose/g
  Intestine % dose/g: 0.64 ± 0.00 % dose/g
  Kidney % dose/g: 3.25 ± 1.12 % dose/g
  Liver % dose/g: 6.199 ± 0.15 % dose/g
  Lung % dose/g: 1.05 ± 0.13 % dose/g
  Muscle % dose/g: 0.083 ± 0.03 % dose/g
  Spleen % dose/g: 2.07 ± 0.55 % dose/g
  Stomach % dose/g: 0.216 ± 0.01 % dose/g
1 hr after injection
  Blood % dose/g: 0.261 ± 0.14 % dose/g
  Bone % dose/g: 0.327 ± 0.02 % dose/g
  Brain % dose/g: 0.019 ± 0.00 % dose/g
  Heart % dose/g: 0.42 ± 0.05 % dose/g
  Intestine % dose/g: 1.236 ± 0.03 % dose/g
  Kidney % dose/g: 5.054 ± 0.18 % dose/g
  Liver % dose/g: 5.128 ± 0.15 % dose/g
  Lung % dose/g: 0.771 ± 0.09 % dose/g
  Muscle % dose/g: 0.068 ± 0.01 % dose/g
  Spleen % dose/g: 3.542 ± 1.23 % dose/g
  Stomach % dose/g: 0.944 ± 0.16 % dose/g
2 hr after injection
  Blood % dose/g: 0.145 ± 0.01 % dose/g
  Bone % dose/g: 0.296 ± 0.01 % dose/g
  Brain % dose/g: 0.018 ± 0.01 % dose/g
  Heart % dose/g: 0.384 ± 0.00 % dose/g
  Intestine % dose/g: 1.478 ± 0.09 % dose/g
  Kidney % dose/g: 5.145 ± 0.11 % dose/g
  Liver % dose/g: 3.05 ± 0.07 % dose/g
  Lung % dose/g: 0.757 ± 0.05 % dose/g
  Muscle % dose/g: 0.066 ± 0.03 % dose/g
  Spleen % dose/g: 4.32 ± 0.19 % dose/g
  Stomach % dose/g: 1.857 ± 0.22 % dose/g
4 hr after injection
  Blood % dose/g: 0.125 ± 0.00 % dose/g
  Bone % dose/g: 0.321 ± 0.01 % dose/g
  Brain % dose/g: 0.01 ± 0.00 % dose/g
  Heart % dose/g: 0.303 ± 0.01 % dose/g
  Intestine % dose/g: 1.843 ± 0.02 % dose/g
  Kidney % dose/g: 1.745 ± 0.11 % dose/g
  Liver % dose/g: 1.538 ± 0.01 % dose/g
  Lung % dose/g: 0.549 ± 0.03 % dose/g
  Muscle % dose/g: 0.067 ± 0.00 % dose/g
  Spleen % dose/g: 3.094 ± 0.50 % dose/g
  Stomach % dose/g: 1.74 ± 0.01 % dose/g

Reference: US20020048549A1, “Radioactive transition metal nitride heterocomplex” (priority 1996, published 2002)
